Test [1] deals with T1, MMP-3 (Matrix Metalloproteinase-3, Stromelysin-1) (Homo sapiens, UniProt P08254).
T1 construct: C-terminal truncated form of human prostromelysin cDNA; made in house; host or cells: E. coli
Description: Inhibition assay against MMP-3 (fluorescent MCA-labeled substrate). It counts as biochemical. Particulars: Table 10; active MMP at 20 nM, 37° C., 1.5 hours; read-out: IC50 MMP3. Here is the method:
C-terminal truncated form of human prostromelysin cDNA (proMMP-3, cDNA sequence in Nature, 348, 699-704 (1990)) was subcloned, expressed in E.coli and purified as described previously (Biochemistry 30, 6476-6483 (1991)). Activation of proMMP-3 was achieved by treatment with 1 mM 4-aminophenylmercuric acetate at 37° C. for 60 min.
(§1) Enzymatic assays were performed in accordance with C. G. Knight's method (FEBS Lett., 296(3), 263-266 (1992)). The fluorescent MCA-labeled substrate, (7-methoxycumaline-4-yl)-Pro-Leu-Gly-Leu-L-[N-(2,4-dinitrophenyl)-L-2,3-diaminopropionyl]-Ala-Arg-NH2 (Peptide Institute. Inc.) was used for measuring the kinetics of inhibition for each tested compound.
(§2) The substrate was incubated at 37° C. for 1.5 hours (MMP-1; for 24 hours) with active MMP (at 20 nM, except MMP-13 at 5 nM) and a test compound in assay buffer containing 100 mM Tris-HCl (pH7.5), 10 mM CaCl2, 100 MM NaCl and 0.05% Brij-35.

For test [2], the target named is T2, MMP-13 (Matrix Metalloproteinase-13, Collagenase-3) (Homo sapiens, UniProt P45452).
T2 construct: made in house; host or cells: E. coli BL21 (DE3), pET11a
In words: Inhibition assay against MMP-13 (fluorescent MCA-labeled substrate). Particulars: Table 10; active MMP-13 at 5 nM, 37° C., 1.5 hours; read-out: IC50 MMP13. It counts as biochemical.
Excerpt: To subclone C-terminal truncated form of procollagenase-3 (proMMP-13) cDNA (J.Biol.Chem., 269(24), 16766-16773 (1994)), two synthetic oligonucleotide primer (5′-[…]-3′ and 5′-[…]-3′: the former incorporates sequences for a unique NdeI site (underlined) including initial methionine, and the latter has sequences for a stop codon and BamHI site (underlined)) were used with human chondrocyte cDNA library (CLONTECH) in PCR. With these primers and Pfu DNA polymerase (STRATAGENE) in PCR, 767 bp fragment was generated, which encodes 84 amino acid prosequence and 164 amino acids of mature MMP-13. The fragment was digested with NdaI and BamHI, ligated into the NdeI and BamHI sites of pET11a (STRATAGENE), transformed in E.coli BL21 (DE3) and cultured. The crude cell extract was prepared as described in Biochemistry. The extract was dialyzed against 20 mM Tris-HCl(pH7.2)/5 mM CaCl2/0.02% NaN3 and applied to a SP-Sepharose HP column (1.6×10 cm, Amersham-Pharmacia Biotech), and elution was performed with 50 mL linear gradient of 0 to 0.3 M NaCl (partially purified proMMP-13 was eluted at 0.2 M approximately). The fraction was dialyzed against 20 mM Tris-HCl(pH7.9)/5 mM CaCl2,/200 mM (NH4)2SO4/0.02% NaN3 and applied to a Phenyl Sepharose HP column (1.6×5 cm, Amersham-Pharmacia Biotech), and elution was performed with 20 mL linear gradient of 0.2 to 0 M (NH4)2SO4 (pure proHMP-13 was eluted at 50 mM approximately). The fraction was concentrated by YM-5 ultrafiltration membrane and activated with 4-aminophenylmercuric acetate and active MMP-13 was separated from propeptide fragments by gel filtration chromatography as described in Biochemistry.
as §1, §2

T1 sequence (P08254 100-272 limits assumed): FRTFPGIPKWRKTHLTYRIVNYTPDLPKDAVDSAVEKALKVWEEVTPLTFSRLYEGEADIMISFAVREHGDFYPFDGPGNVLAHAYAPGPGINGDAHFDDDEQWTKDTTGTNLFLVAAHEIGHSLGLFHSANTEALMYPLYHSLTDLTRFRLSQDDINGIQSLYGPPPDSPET

Usually IC50 stands for the concentration needed to halve the response being measured. For the compound `COc1cccc(C2SC(CC(=O)NO)C(=O)N2CC(Cl)CCCCl)c1[N+](=O)[O-]` (stereo not shown) [Example 10], the IC50 is 31600 nM in test [1] and 5300 nM in test [2].
Regarding `COc1ccc(C2SC(CC(=O)NO)C(=O)N2CCCc2ccccc2)cc1` (stereo not shown) [Example 13], the IC50 in test [1] was > 50000 nM; in test [2], 13200 nM.
On to `COc1cccc(C2SC(CC(=O)NO)C(=O)N2CCc2ccc(O)cc2)c1OC` (stereo not shown) [Example 19], for which the IC50 in test [1] was 1000 nM; in test [2], > 50000 nM.
Taken in the same sequence, the figures for `CCCCC#Cc1ccc(C2SCC(=O)N2C(CC(C)C)C(=O)NO)cc1` (stereo not shown) [Example 42] were > 10000 nM and 759 nM.
Taken in the same sequence, the figures for `CC(C)CC(C(=O)NO)N1C(=O)CSC1c1ccc(-c2ccc(Cl)cc2)o1` (stereo not shown) [Example 46] were 894 nM and 134 nM.
Taken in the same sequence, the figures for `COc1ccc(C2SCC(=O)N2C(CCSC)C(=O)NO)cc1F` (stereo not shown) [Example 71] were 9070 nM and 249 nM.
Turning to `CC(C)CC(C(=O)NO)N1C(=O)CSC1c1ccc(-c2cc(C(F)(F)F)nn2C)s1` (stereo not shown) [Example 88], the IC50 in test [1] worked out at 3800 nM; in test [2], 62 nM.
Taken in the same sequence, the figures for `COc1ccc(C2SCC(=O)N2C(COC(C)(C)C)C(=O)NO)cc1` (stereo not shown) [Example 105] were 6720 nM and 231 nM.
Taken in the same sequence, the figures for `COc1ccc(C2SCC(=O)N2C(Cc2ccc(OC(C)(C)C)cc2)C(=O)NO)cc1` (stereo not shown) [Example 109] were 599 nM and 43 nM.
As to `O=C(NO)C(Cc1c[nH]c2ccccc12)N1C(=O)CSC1c1ccc(Cl)cc1` (stereo not shown) [Example 121], the IC50 in test [1] is 2550 nM; in test [2], 128 nM.
Turning to `CC(C)CC(C(=O)NO)N1C(=O)CSC1c1ccc(Cl)cc1` (stereo not shown) [Example 130], the IC50 in test [1] was 1140 nM; in test [2], 56 nM.
Taken in the same sequence, the figures for `CCCC(C(=O)NO)N1C(=O)CSC1c1ccc(Oc2ccccc2)cc1` (stereo not shown) [Example 143] were 1270 nM and 64 nM.
As for `CCC(C)C(C(=O)NO)N1C(=O)CSC1c1ccc(OC)c(F)c1` (stereo not shown) [Example 175], the IC50 in test [1] was 1140 nM; in test [2] it was 112 nM.
As to `CCC(C)C(C(=O)NO)N1C(=O)CSC1c1ccc(SC)cc1` (stereo not shown) [Example 176], the IC50 in test [1] was 1060 nM; in test [2] it was 100 nM.
As for `CCCCC(C(=O)NO)N1C(=O)CSC1c1cc2ccccc2o1` (stereo not shown) [Example 195], the IC50 turned out to be 1890 nM in test [1] and 119 nM in test [2].
With `COc1ccc(C2SC(CC(=O)NCc3cccnc3)C(=O)N2C(Cc2ccccc2)C(=O)NO)cc1` (stereo not shown) [Example 211], the IC50 in test [1] is 895 nM; in test [2] it was 108 nM.
On to `CC(C)CC(C(=O)NO)N1C(=O)C(CC(=O)NCc2ccco2)SC1c1ccc(Cl)cc1` (stereo not shown) [Example 218], for which the IC50 in test [1] is 422 nM; in test [2], 56 nM.
Taken in the same sequence, the figures for `COc1ccc(C2SC(CC(=O)NC3CCCCC3)C(=O)N2C(CC(C)C)C(=O)NO)cc1` (stereo not shown) [Example 239] were 274 nM and 35 nM.
Taken in the same sequence, the figures for `Cc1cc(NC(=O)CC2SC(c3ccc(Cl)cc3)N(C(Cc3ccc(OC(C)(C)C)cc3)C(=O)NO)C2=O)no1` (stereo not shown) [Example 255] were 1200 nM and 106 nM.
Turning to `COC(C)(C)NC(=O)CC1SC(c2ccc(Cl)cc2)N(C(Cc2ccc(OC(C)(C)C)cc2)C(=O)NO)C1=O` (stereo not shown) [Example 257], the results for the IC50 in test [1] and in test [2] were 267 nM and 23 nM, respectively.
Taken in the same sequence, the figures for `C=CCNC(=O)CC1SC(c2ccc(Cl)cc2)N(C(CC(C)C)C(=O)NO)C1=O` (stereo not shown) [Example 262] were 850 nM and 66 nM.
Taken in the same sequence, the figures for `CCCNC(=O)CC1SC(c2ccc(Cl)cc2)N(C(Cc2ccc(OC(C)(C)C)cc2)C(=O)NO)C1=O` (stereo not shown) [Example 283] were 614 nM and 37 nM.
With `CCCN(CCC)C(=O)CC1SC(c2ccc(Cl)cc2)N(C(CC(C)C)C(=O)NO)C1=O` (stereo not shown) [Example 306], the IC50 in test [1] was found to be 987 nM; in test [2] it was 122 nM.
Taken in the same sequence, the figures for `COCCNC(=O)CC1SC(c2ccc(Cl)cc2)N(C(Cc2ccc(OC(C)(C)C)cc2)C(=O)NO)C1=O` (stereo not shown) [Example 316] were 442 nM and 26 nM.
Taken in the same sequence, the figures for `CNC(=O)CC1SC(c2ccc(OC)cc2)N(C(Cc2ccc(OC(C)(C)C)cc2)C(=O)NO)C1=O` (stereo not shown) [Example 324] were 733 nM and 63 nM.
Taken in the same sequence, the figures for `COCCCNC(=O)CC1SC(c2ccc(OC)cc2)N(C(Cc2ccc(OC(C)(C)C)cc2)C(=O)NO)C1=O` (stereo not shown) [Example 329] were 155 nM and 11 nM.
Take `COc1ccc(C2SC(CC(=O)NCCCN3CCCCC3C)C(=O)N2C(Cc2ccc(OC(C)(C)C)cc2)C(=O)NO)cc1` (stereo not shown) [Example 330]: the IC50 in test [1] came out at 745 nM; in test [2], 66 nM.
Taken in the same sequence, the figures for `COc1ccc(C2SC(CC(=O)NCc3ccco3)C(=O)N2C(Cc2ccc(OC(C)(C)C)cc2)C(=O)NO)cc1` (stereo not shown) [Example 333] were 794 nM and 70 nM.
Taken in the same sequence, the figures for `COc1ccc(C2SC(CC(=O)Nc3ccccn3)C(=O)N2C(Cc2ccc(OC(C)(C)C)cc2)C(=O)NO)cc1` (stereo not shown) [Example 361] were 446 nM and 53 nM.
Taken in the same sequence, the figures for `COc1ccc(/C=C2\Sc3cc(Cl)ccc3N(CC(=O)NO)C2=O)cc1` [Example 370] were 1200 nM and 35 nM.
As for `COc1ccc(/C=C2\Sc3ccc(C(F)(F)F)cc3N(CC(=O)NO)C2=O)cc1` [Example 371], the IC50 in test [1] turned out to be 880 nM; in test [2] it was 36 nM.
Taken in the same sequence, the figures for `O=C(CN1C(=O)C(=Cc2ccccn2)Sc2ccccc21)NO` [Example 378] were > 50000 nM and 16000 nM.
Taken in the same sequence, the figures for `O=C(CN1C(=O)/C(=C/c2ccccc2)Sc2ccccc21)NO` [Example 388] were 23000 nM and 1600 nM.
Taken in the same sequence, the figures for `O=C(CN1C(=O)/C(=C/c2ccc(-c3ccc(Br)cc3)o2)Sc2ccccc21)NO` [Example 389] were > 50000 nM and 29000 nM.
In the case of `O=C(CN1C(=O)C(Cc2ccc(O)cc2)Sc2ccccc21)NO` (stereo not shown) [Example 406, 2H-2-(4-Hydroxybenzyl)-1,4-benzothiazin-3(4H)-one-4-yl-acetic Acid N-Hydroxyamide], the IC50 came to 3230 nM in test [1] and 257 nM in test [2].
As for `Cc1ccc(CC2Sc3ccccc3N(CC(=O)NO)C2=O)cc1` (stereo not shown) [Example 407, 2H-2-(4-Methylbenzyl)-1,4-benzothiazin-3(4H)-one-4-yl-acetic acid N-hydroxyamide], the IC50 came to 433 nM in test [1] and 24 nM in test [2].
Taken in the same sequence, the figures for `O=C(CN1C(=O)C(Cc2ccc(Oc3ccccc3)cc2)Sc2ccccc21)NO` (stereo not shown) [Example 409] were 279 nM and 12 nM.
In the case of `O=C(CN1C(=O)C(Cc2ccc(-c3ccccc3)cc2)Sc2ccccc21)NO` (stereo not shown) [Example 419], the IC50 in test [1] was 514 nM; in test [2] it was 63 nM.
In the case of `CCN(CC)c1ccc(CC2Sc3ccccc3N(CC(=O)NO)C2=O)cc1` (stereo not shown) [Example 422], the IC50 in test [1] was > 10000 nM; in test [2], 4810 nM.
Consider `O=C(CN1C(=O)C(Cc2cccnc2)Sc2ccccc21)NO` (stereo not shown) [Example 423], for which the half-maximal inhibitory concentration (IC50) in test [1] is 5130 nM; in test [2] it was 1220 nM.
Consider `O=C(CN1C(=O)C(Cc2ccc(Br)cc2)Sc2ccccc21)NO` (stereo not shown) [Example 426], for which the IC50 amounted to 375 nM in test [1] and 38 nM in test [2].
For `COc1ccc(CC2Sc3cccc(Cl)c3N(CC(=O)NO)C2=O)cc1` (stereo not shown) [Example 429], the results for the IC50 in test [1] and in test [2] were 5620 nM and 3600 nM, respectively.
For `COc1ccc(CC2Sc3cc(C)c(C)cc3N(CC(=O)NO)C2=O)cc1` (stereo not shown) [Example 431], the figures for the IC50 in test [1] and in test [2] were 238 nM and 13 nM, respectively.
For the compound `COc1ccc(CC2Sc3ccccc3N([C@H](C(=O)NO)C(C)C)C2=O)cc1` (stereo partly shown) [Example 436], the values for the IC50 in test [1] and in test [2] were 938 nM and 671 nM, respectively.
